From article PMC5992141, “Discovery of pancreastatin inhibitor PSTi8 for the treatment of insulin resistance and diabetes: studies in rodent models of diabetes mellitus” (Scientific Reports, 2018)
Residues, ends and D or L forms follow the SMILES beside them.

What was measured:
GRP78 receptor [1] = target: T1, GRP78 receptor (Homo sapiens, UniProt P11021); experiment: Competitive binding with sulphorhodamine labelled PST and PSTi8 in HepG2 cells; parameters: endogenous in cells; host or cells: HepG2
Method: Sulphorhodamine B labelled PST and PSTi8 were synthesized and purified from Genpro Biotech, India. In HepG2 cells, the competitive binding assay of PST and PSTi8 were performed and the labelled PST and/or PSTi8 concentrations were measured at 568 nm and 584 nm, respectively.

C57Bl/6 mice = experiment: Glucose reduction experiment, normoglycemic mice; assay type: in vivo; details: control C57Bl/6 mice (normoglycemic), acute i.p. 5 mg/kg
Method: (§1) All animal experiments were performed according to protocols approved by Institutional Animal Ethics Committee (IAEC approval no. IAEC/2012/31-A), CSIR-Central Drug Research Institute (CSIR-CDRI, India). Male C57BL/6 mice (8–10 weeks, 15–20 g) and male db/db mice (10–12 weeks, 45–50 g) were obtained from Laboratory of Animal Division, CSIR-CDRI. […] After successful of model development diabetic mice divided in two groups, vehicle control group receive saline and treated group receive PSTi8. After acute (5 mg/kg) and chronic (2 mg/kg) treatment of PSTi8 for 10 days, mice were fasted for 6 hr before experiments and then sacrificed to collect plasma and tissues, which were snap frozen in liquid nitrogen.

GRP78 receptor [2] = target: T1, GRP78 receptor; experiment: GRP78 ATPase enzymatic activity (Malachite green-phosphate assay); assay type: biochemical; parameters: purchased Abcam Inc., Cambridge, MA ab78432; details: PSTi8 5 µM with PST 1 µM, GRP78 0.25 µM, 100 µM ATP, 37 °C, 30 min
Method: To determine that PSTi8 inhibit PST inhibitory action on GRP78 ATPase activity, we perform Concentration-dependent spectrophotometric assays using recombinant human GRP78 protein (catalog # ab78432, Abcam Inc., Cambridge, MA). PSTi8 was co-incubated with PST (1 µM) at different doses (1, 2.5 and 5 µM) in 50 µl of assay buffer (20 mM Tris, pH 7.5, 50 mM KCl, 1.5 mM MgCl2) containing GRP78 protein (0.25 µM). The reaction was started by adding 100 µM ATP and incubated at 37 °C for 30 min. On ATP hydrolysis free phosphate (Pi) was measured by a Malachite green-phosphate assay (catalog #10009325, Cayman)[11].

[3] = In-vivo pharmacokinetic study in db/db mice; details: i.p. 5 mg/kg, SPE, LC-MS/MS
Method: PSTi8 (5 mg/kg) was administered (i.p) in db/db mice for PK study. After dosing, blood samples were collected at different time points. Plasma samples (100 µL) were processed using the solid phase extraction (SPE). The 100 µL of eluted SPE samples were injected into the liquid chromatography tandem mass spectrometry (LC-MS/MS) (API 4000QTRAP, ABSciex, Canada) for analysis. The PK profile and parameters were evaluated by non-compartmental model approach using Pheonix 6.3 WinNonlin(Pharsight Corporation, USA).

[4] = system: HFrD-fed STZ induced IR mice; experiment: i.p. glucose tolerance test (GTT), HFrD-fed mice; assay type: in vivo; details: 6 h fasted, mean ± s.e.m., n = 6
Method: as §1
(§2) i.p GTT, i.p ITT and i.p PTT were carried out in 6 hr fasted mice. The blood glucose level was measured from tail tip using Contour TS blood glucose meter. The AUC is calculated using GraphPad Prism 5.0 software[4],[13].

[5] = system: HFrD-fed STZ induced IR mice; experiment: i.p. insulin tolerance test (ITT), HFrD-fed mice; assay type: in vivo; details: 6 h fasted, mean ± s.e.m., n = 6
Method: as §1, §2

T1 sequence (P11021 19-654): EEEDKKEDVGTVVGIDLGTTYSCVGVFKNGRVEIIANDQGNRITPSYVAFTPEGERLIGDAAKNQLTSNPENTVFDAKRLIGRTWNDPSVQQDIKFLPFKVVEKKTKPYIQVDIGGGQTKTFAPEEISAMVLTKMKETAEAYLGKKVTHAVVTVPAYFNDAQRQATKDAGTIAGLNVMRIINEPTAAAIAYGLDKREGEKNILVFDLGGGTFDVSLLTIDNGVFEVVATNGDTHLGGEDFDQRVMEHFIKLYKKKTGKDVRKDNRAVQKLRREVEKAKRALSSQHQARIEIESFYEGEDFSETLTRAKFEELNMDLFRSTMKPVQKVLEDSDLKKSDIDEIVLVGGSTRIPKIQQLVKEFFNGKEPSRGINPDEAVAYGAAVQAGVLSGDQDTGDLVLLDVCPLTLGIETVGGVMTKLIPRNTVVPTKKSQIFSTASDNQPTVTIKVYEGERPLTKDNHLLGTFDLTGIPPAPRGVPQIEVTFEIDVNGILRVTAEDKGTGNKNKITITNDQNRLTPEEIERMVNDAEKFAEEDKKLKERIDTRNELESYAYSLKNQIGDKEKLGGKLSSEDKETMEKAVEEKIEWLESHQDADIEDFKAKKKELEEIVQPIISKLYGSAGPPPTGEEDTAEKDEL

## CSCC[C@H](NC(=O)[C@H](CCC(=O)O)NC(=O)[C@H](CCC(=O)O)NC(=O)[C@H](CCC(=O)O)NC(=O)[C@H](CCC(=O)O)NC(=O)[C@H](CCC(=O)O)NC(=O)[C@H](CCCCN)NC(=O)[C@H](CCC(N)=O)NC(=O)[C@H](CCC(N)=O)NC(=O)[C@H](CO)NC(=O)[C@H](Cc1c[nH]cn1)NC(=O)[C@H](CCC(=O)O)NC(=O)[C@H](CCC(N)=O)NC(=O)[C@H](CCC(=O)O)NC(=O)CNC(=O)[C@H](CCCCN)NC(=O)CNC(=O)[C@H](CCC(=O)O)NC(=O)[C@@H]1CCCN1)C(=O)N[C@@H](C)C(=O)N[C@H](C(=O)N[C@H](C(=O)N1CCC[C@H]1C(=O)N[C@@H](CCC(N)=O)C(=O)NCC(=O)N[C@@H](CC(C)C)C(=O)N[C@@H](Cc1ccccc1)C(=O)N[C@@H](CCCNC(=N)N)C(=O)NCC(N)=O)C(C)C)C(C)C [PST, Pancreastatin] (H-PEGKGEQEHSQQKEEEEEMAVVPQGLFRG-NH2)
GRP78 receptor [1]; PST 100 nM against sulphorhodamine labelled PSTi8 150 nM
  inhibition at 0.1 µM: > 50%

## CSCC[C@H](NC(=O)[C@H](CCC(=O)O)NC(=O)[C@H](CCC(=O)O)NC(=O)[C@H](CCC(=O)O)NC(=O)[C@H](CCC(=O)O)NC(=O)[C@H](CCC(=O)O)NC(=O)[C@H](CCCCN)NC(=O)[C@H](CCC(N)=O)NC(=O)[C@H](CCC(N)=O)NC(=O)[C@H](CO)NC(=O)[C@H](Cc1c[nH]cn1)NC(=O)[C@H](CCC(=O)O)NC(=O)[C@H](CCC(N)=O)NC(=O)[C@H](CCC(=O)O)NC(=O)CNC(=O)[C@H](CCCCN)NC(=O)CNC(=O)[C@H](CCC(=O)O)NC(=O)[C@@H]1CCCN1)C(=O)N[C@@H](C)C(=O)N[C@H](C(N)=O)C(C)C [PSTi8] (H-PEGKGEQEHSQQKEEEEEMAV-NH2)
C57Bl/6 mice
  effect on blood glucose level: did not show any decrease in glucose level
GRP78 receptor [2]
  enhancement of ATPase activity of GRP78 inhibited by PST: ~50%
GRP78 receptor [1]; PSTi8 300 nM against sulphorhodamine labelled PST 25 nM
  inhibition at 0.3 µM: > 50%
[3]
  time up to which plasma concentration was observed: ≤ 6 h

## CN(C)C(=N)N=C(N)N [metformin]
[4]; acute metformin p.o. 300 mg/kg, 30 min before glucose 1 g/kg
  AUC, i.p GTT: 44068.5 ± 3070.1 mg·min/dL
[4]; chronic metformin p.o. 300 mg/kg for 7 days, glucose 1 g/kg
  AUC, i.p GTT: 36913.13 ± 891.89 mg·min/dL
[5]; acute metformin p.o. 300 mg/kg, 30 min before insulin 0.6 IU/kg
  AUC, ipITT: 19828.5 ± 1004.11 mg·min/dL
[5]; chronic metformin p.o. 300 mg/kg for 7 days, insulin 0.6 IU/kg
  AUC, ipITT: 16417.5 ± 1222.35 mg·min/dL
